The source of these data is publication PMC9714576, “Cell-penetrating peptide-conjugated copper complexes for redox-mediated anticancer therapy” (Frontiers in Pharmacology, 2022).

As a reminder, the IC50 is the point on the concentration scale where inhibition reaches its midpoint. Read a high IC50 as a need for much substance.

The subject of one assay is MCF7 cells. Put plainly: Cell-viability assay (PrestoBlue). Format: cell-based, Human. Conditions: MCF7, 24 h treatment, normalized for Cu concentration, mean ± SD, N ≥ 3. Here is the method:
(§1) Human cancer cells (cervix: HeLa; and breast: MCF7) were obtained from American Type Culture Collection (ATCC, Manassas, VA, United States). Cells were routinely cultured with DMEM (Dulbecco’s modified Eagle’s medium, Invitrogen) for HeLa, and with DMEM/F-12 (Dulbecco’s MEM/Nutrient Mixture F-12 Ham, Invitrogen) for MCF7, both supplemented with 10% heat-inactivated fetal bovine serum (FBS, Invitrogen) at 37°C in a humidified 5% CO2 atmosphere.
(§2) HeLa and MFC7 cells were seeded into a 96-well plate at a cell density of 3·10^3 cells/well in 100 µL of culture medium and allowed to grow overnight. The next day, the C1-C5 complexes were added to cells at a range concentration of 0–200 μM. […] The growth inhibitory effect of the complexes was measured at 24 h using the PrestoBlue Cell Reagent (Life Technologies) assay. […] After 2 h incubation (37°C, 5% CO2), the fluorescence of each well was measured at 572 nm after excitation at 531 nm with a Microplate Reader Victor3 (Perkin Elmer). Cytotoxicity was evaluated by relative cell viability (%) for each sample related to the control well. The IC50 values were calculated from the obtained cell viability results. […] Cells were allowed then to evolve until a total incubation time of 72 h and the cell viability was measured with PrestoBlue®, as beforehand detailed.

In the next assay the test system is HeLa cells. Put plainly: Cell-viability assay (PrestoBlue). The class given is cell-based, Human. Conditions: 24 h treatment, normalized for Cu concentration, mean ± SD, N ≥ 3. Here is the method: as §1, §2
Assay [1] can be described thus: Ascorbate consumption experiment (ROS-generation capability, UV-vis). To be noted: ascorbic acid 100 µM, complex 2 µM, 50 mM NaCl/5 mM TRIS-HCl pH 7.2, max 5% DMSO, UV-vis at 265 nm. The procedure:
All the spectra were recorded at room temperature either on an Agilent HP 8453, a Varian Cary 50 Bio, a Varian Cary 60 Bio or a Perkin Elmer Lambda 650 spectrophotometer, using 1 cm quart-cuvettes. Ascorbate consumption experiments were monitored by UV-vis at the maximum absorption band of the ascorbic acid (100 µM) at 265 nm for about 45 min. CuCl2 and the assayed complexes C1-C3 were added at a final concentration of 2 µM in 50 mM NaCl/5 mM TRIS-HCl buffer (pH 7.2), with a maximum of 5% of DMSO.
Prior to biological evaluation, and after proving that the new C2-C5 Cu(II) complexes hold the same metallic core as C1, the impact of the ligand substituents on their catalytic properties, and therefore, ROS-generating capabilities ([Peña et al., 2021]), were confirmed with the two simplest functionalized Cu(II) compounds (C2 and C3), as model compounds bearing oppositely-charged functional moieties. The consumption of ascorbate was measured by UV-vis spectroscopy, monitoring its characteristic absorbance at 265 nm. The correlation of ascorbate consumption with the generation of ROS has proven to be a reliable method to effectively monitor ROS production ([Alies et al., 2013]; [Chassaing et al., 2013]).

For `[Cl][Cu][Cl]` [CuCl2, copper(II) chloride], the IC50 in the assay on MCF7 cells and in the assay with HeLa cells was at least 200 µM each time. Moreover, the “Time to (almost) total ascorbate consumption” value in assay [1] is around 20 min.
